From patent US9128097B2, “Method and kit for assessing viable cells” (ChemoMetec A/S, priority 2008, dated 2015)

Legend:
[1] = system: HEK293 cells; assay: NAM/PI staining of outgrown HEK293 cells, fluorescence microscopy; type: cell-based, Human; settings: 10 μg/mL NAM
Method: Materials and Methods. HEK293 cells were grown at 37° C. in a humidified air atmosphere with 5% CO2 in DMEM (Invitrogen, #31966) supplemented with 10% heat-inactivated fetal bovine serum (Invitrogen, #10108-165). Cells were harvested with 0.5 mL of trypsin (Invitrogen, #25300) and neutralized with 5 mL medium (DMEM+10% FCS) two days after they had reached full confluency. These outgrown HEK293 cells (cell density 1.6×10^6, 78% viable determined using the NC-100 NucleoCounter system following the manufacturer's (ChemoMetec) protocol) were stained with 10 μg/mL NAM (Sigma, #01665). Another cell sample were treated with 0.25% Triton X-100 (Sigma, #T9284) and hereafter added 10 μg/mL NAM. After staining, each cell sample was loaded into a NucleoCassette, containing the DNA stain propidium iodide (PI). The cells were investigated using an Olympus IX50 fluorescence microscope, and images were captured using a Lumenera CCD camera and in-house developed software. PI and NAM fluorescence were detected using, respectively, U-MWG2 (green long pass: 510-550 nm) and U-MNUA2 (UV band pass, 330-385 nm) filter cubes (Olympus).

[2] = system: bone marrow cells; assay: NAM/PI staining of bone marrow derived cells; type: cell-based, murine; settings: bone marrow cells 93% viable; 10 μL NAM (100 μg pr. mL DMSO) to 90 μL cells
Method: Materials and Methods. The bone marrow cells were harvested aseptically in the laminarflow hood. Briefly, bilateral tibia and femur were aseptically removed, freed of surrounding soft tissue, and placed in a petri dish with 10 mL 70% ethanol. After 2 minutes they were transferred to ice cold PBS. The bone marrow cavity was then flushed with 5 ml cold PBS using a 5-ml syringe with a 27-gauge needle attached, and the cells were collected from each bone. The cells were centrifuged at 300 g for 10 min, the supernatant was discarded, and cells were washed twice. […] 90 μL bone marrow cellss (cell density 1.7×10^6, 93% viable determined using the NC-100 NucleoCounter system following the manufacturer's (ChemoMetec A/S) protocol) were added 10 μL NAM (N-(9-acridinyl)maleimide, Sigma, #01665, CAS no. 49759-20-8) dissolved in DMSO (100 μg NAM pr. mL DMSO) and mixed by pipetting. […] The cells were investigated using an Olympus IX50 fluorescence microscope, and images were captured using a Lumenera CCD camera and in-house developed software. PI and NAM fluorescence were detected using, respectively, U-MWG2 (green long pass: 510-550 nm) and U-MNUA2 (UV band pass, 330-385 nm) filter cubes (Olympus).

[3] = system: bone marrow derived dendritic cells (BM-DCs); assay: Staining of bone marrow derived dendritic cells with labelling agent and PI; type: cell-based, murine; settings: dendritic cells 97% viable; 10 μL NAM (100 μg pr. mL DMSO) to 90 μL cells
Source text: Materials and Methods. Dendritic cells were developed from murine bone marrow derived cells as described by “Lutz, M. B., N. Kukutsch, A. L. Ogilvie, S. Rossner, F. Koch, N. Romani, and G. Schuler. 1999. An advanced culture method for generating large quantities of highly pure dendritic cells from mouse bone marrow. J Immunol Methods 223:77-92”. Bone marrow cells were harvested aseptically in the laminar flow hood as described in example 11. Washed and resuspended bone marrow cells were resuspended in RPMI 1640 (Invitrogen, #61870) supplemented with 10% heat-inactivated fetal bovine serum (Invitrogen, #10108-165), 100 U/mL penicillin and 100 μg/mL streptomycin (Invitrogen, #15140-122). […] 90 μL dendritic cells (cell density 1.2×10^6, 97% viable determined using the NC-100 NucleoCounter system following the manufacturer's (ChemoMetec A/S) protocol) were added 10 μL NAM (N-(9-acridinyl)maleimide, Sigma, #01665, CAS no. 49759-20-8) dissolved in DMSO (100 μg NAM pr. mL DMSO) and mixed by pipetting. […] The cells were investigated using an Olympus IX50 fluorescence microscope, and images were captured using a Lumenera CCD camera and in-house developed software. PI and NAM fluorescence were detected using, respectively, U-MWG2 (green long pass: 510-550 nm) and U-MNUA2 (UV band pass, 330-385 nm) filter cubes (Olympus). […]

## O=C1C=CC(=O)N1c1c2ccccc2nc2ccccc12 [NAM, N-(9-acridinyl)maleimide]
[1]; HEK293 cells treated with 0.25% Triton X-100
  staining of Triton X-100 treated cells: NAM negative
[1]; outgrown HEK293 cells, 78% viable
  staining of cells versus PI: NAM and PI were found to complementary stain the outgrown HEK293 cells
[2]
  staining of cells (UV filter) versus PI positive cells: nearly all the primary bone marrow cells were stained by NAM
[3]
  staining of cells (UV filter) versus PI positive cells: nearly all the dendritic cells were stained by NAM
